Assay results: PubChem BioAssay AID248 (DTP/NCI, 2004)
Values joined by “and” are separate entries in the source; they are usually repeats but may differ in a detail not shown here. Identical values can stand only once. Toxic doses and inconclusive results are not listed. No stated cut-off is given here; in the data, active means T/C of 150% or more; inactive means T/C below 125%.

System: L1210 leukemia ip in BDF1 mice, survival T/C
Assay: NCI In Vivo Anticancer Drug Screen. Data for tumor model L1210 Leukemia (intraperitoneal) in B6D2F1 (BDF1) mice
Details: endpoint: mean survival time, higher = longer survival
Outline: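 Mice bearing the transplanted tumor received compound or vehicle. Survival of the treated group was divided by that of the vehicle-treated control group to give the ratio.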

[1] = dose: 50.0 mg/kg/injection, schedule: Q01DX009 (ip), vehicle: saline with Tween-80
[2] = dose: 100.0 mg/kg/injection, schedule: Q01DX009 (ip), vehicle: saline with Tween-80
[3] = dose: 100.0 mg/kg/injection, schedule: Q04DX003 (ip), vehicle: saline with Tween-80
[4] = dose: 200.0 mg/kg/injection, schedule: Q01DX009 (ip), vehicle: saline with Tween-80
[5] = dose: 200.0 mg/kg/injection, schedule: Q04DX003 (ip), vehicle: saline with Tween-80
[6] = dose: 400.0 mg/kg/injection, schedule: Q04DX003 (ip), vehicle: saline with Tween-80
[7] = dose: 100.0 mg/kg/injection, schedule: Q04DX003 (ip), vehicle: Klucel (hydroxypropylcellulose) (HPC)
[8] = dose: 200.0 mg/kg/injection, schedule: Q04DX003 (ip), vehicle: Klucel (hydroxypropylcellulose) (HPC)
[9] = dose: 12.5 mg/kg/injection, schedule: Q01DX009 (ip), vehicle: Klucel (hydroxypropylcellulose) (HPC)
[10] = dose: 25.0 mg/kg/injection, schedule: Q01DX009 (ip), vehicle: Klucel (hydroxypropylcellulose) (HPC)
[11] = dose: 50.0 mg/kg/injection, schedule: Q04DX003 (ip), vehicle: Klucel (hydroxypropylcellulose) (HPC)
[12] = dose: 100.0 mg/kg/injection, schedule: Q01DX009 (ip), vehicle: Klucel (hydroxypropylcellulose) (HPC)
[13] = dose: 200.0 mg/kg/injection, schedule: Q01DX009 (ip), vehicle: Klucel (hydroxypropylcellulose) (HPC)
[14] = dose: 400.0 mg/kg/injection, schedule: Q04DX003 (ip), vehicle: Klucel (hydroxypropylcellulose) (HPC)
[15] = dose: 400.0 mg/kg/injection, schedule: Q01DX009 (ip), vehicle: Klucel (hydroxypropylcellulose) (HPC)

Measured: T/C

Cc1ccc(NS(=O)(=O)c2ccc(Br)cc2)c(C)c1
inactive: dose: 25.0 mg/kg/injection, schedule: Q01DX009 (ip), vehicle: saline with Tween-80 98 % of control | [1] 96 % of control | [2] 96 % of control | [3] 98 % of control | [4] 98 % of control | [5] 91 % of control | dose: 400.0 mg/kg/injection, schedule: Q01DX009 (ip), vehicle: saline with Tween-80 101 % of control | [6] 93 % of control

N=C(OC1CCCCC1)N(Cc1ccccc1)Cc1ccccc1
inactive: dose: 44.0 mg/kg/injection, schedule: Q01DX Z (ip), vehicle: methylcellulose (MC) 104 % of control | dose: 66.0 mg/kg/injection, schedule: Q01DX Z (ip), vehicle: methylcellulose (MC) 104 % of control | dose: 100.0 mg/kg/injection, schedule: Q01DX Z (ip), vehicle: methylcellulose (MC) 117 % of control

COc1ccc(NC(=O)Nc2cccc(SC)c2)cc1
inactive: dose: 100.0 mg/kg/injection, schedule: Q01DX009 (ip), vehicle: carboxymethylcellulose (CMC) 94 % of control and 97 % of control | dose: 100.0 mg/kg/injection, schedule: Q04DX002 (ip), vehicle: Klucel (hydroxypropylcellulose) (HPC) 93 % of control | dose: 100.0 mg/kg/injection, schedule: Q04DX002 (ip), vehicle: carboxymethylcellulose (CMC) 97 % of control and 101 % of control | dose: 100.0 mg/kg/injection, schedule: Q04DX003 (ip), vehicle: carboxymethylcellulose (CMC) 94 % of control | dose: 200.0 mg/kg/injection, schedule: Q01DX009 (ip), vehicle: carboxymethylcellulose (CMC) 92 % of control and 95 % of control | dose: 200.0 mg/kg/injection, schedule: Q04DX002 (ip), vehicle: Klucel (hydroxypropylcellulose) (HPC) 93 % of control | dose: 200.0 mg/kg/injection, schedule: Q04DX002 (ip), vehicle: carboxymethylcellulose (CMC) 100 % of control and 91 % of control | dose: 200.0 mg/kg/injection, schedule: Q04DX003 (ip), vehicle: carboxymethylcellulose (CMC) 86 % of control | dose: 400.0 mg/kg/injection, schedule: Q01DX009 (ip), vehicle: carboxymethylcellulose (CMC) 94 % of control | dose: 400.0 mg/kg/injection, schedule: Q04DX002 (ip), vehicle: Klucel (hydroxypropylcellulose) (HPC) 107 % of control | dose: 400.0 mg/kg/injection, schedule: Q04DX002 (ip), vehicle: carboxymethylcellulose (CMC) 111 % of control and 91 % of control | dose: 400.0 mg/kg/injection, schedule: Q04DX003 (ip), vehicle: carboxymethylcellulose (CMC) 93 % of control

CC(C)c1ccc(/C=N\NC(=O)N/N=C/c2ccc(C(C)C)cc2)cc1
inactive: [7] 93 % of control | [8] 88 % of control

COc1cc2[nH]c(C)c(CCN3CCN(c4ccccc4)CC3)c2cc1OC
inactive: dose: 3.12 mg/kg/injection, schedule: Q01DX009 (ip), vehicle: Klucel (hydroxypropylcellulose) (HPC) 104 % of control | dose: 6.25 mg/kg/injection, schedule: Q01DX009 (ip), vehicle: Klucel (hydroxypropylcellulose) (HPC) 108 % of control | [9] 96 % of control | [10] 105 % of control | dose: 25.0 mg/kg/injection, schedule: Q04DX003 (ip), vehicle: Klucel (hydroxypropylcellulose) (HPC) 106 % of control | [11] 106 % of control

CC(=O)Oc1ccc(C2CC(=O)N(CCN(C)C)C2=O)cc1 (stereo unspecified)
inactive: dose: 100.0 mg/kg/injection, schedule: Q01DX001 (ip), vehicle: saline 107 % of control | dose: 200.0 mg/kg/injection, schedule: Q01DX001 (ip), vehicle: saline 90 % of control | dose: 400.0 mg/kg/injection, schedule: Q01DX001 (ip), vehicle: saline 100 % of control

ClCCCOC1CCCCO1 (stereo unspecified)
inactive: [7] 89 % of control | [3] 107 % of control | [8] 95 % of control | [5] 96 % of control | [6] 96 % of control

COC(=O)c1cc(=O)c2cc(C(C)=O)ccc2[nH]1
inactive: dose: 100.0 mg/kg/injection, schedule: Q01DX001 (ip), vehicle: other 95 % of control | dose: 200.0 mg/kg/injection, schedule: Q01DX001 (ip), vehicle: other 94 % of control and 89 % of control | dose: 400.0 mg/kg/injection, schedule: Q01DX001 (ip), vehicle: other 105 % of control and 90 % of control

CN(C)OC(=O)Nc1cccc2ccccc12
inactive: dose: 100.0 mg/kg/injection, schedule: Q04DX002 (ip), vehicle: DMSO 96 % of control | dose: 200.0 mg/kg/injection, schedule: Q04DX002 (ip), vehicle: DMSO 108 % of control | dose: 400.0 mg/kg/injection, schedule: Q04DX002 (ip), vehicle: DMSO 101 % of control

O=C(N/N=C/c1ccccc1O)c1ccc(Cl)cc1
inactive: [1] 93 % of control | [2] 93 % of control | [4] 93 % of control

Cc1ccc(S(=O)(=O)OCC2C(c3ccccc3)CCC(c3ccccc3)C2COS(=O)(=O)c2ccc(C)cc2)cc1 (stereo unspecified)
inactive: [12] 90 % of control | [7] 103 % of control | [13] 94 % of control | [8] 105 % of control | [14] 100 % of control

O=C(CCCl)OCCCl
inactive: dose: 50.0 mg/kg/injection, schedule: Q01DX009 (ip), vehicle: saline sonified 94 % of control | dose: 100.0 mg/kg/injection, schedule: Q01DX009 (ip), vehicle: saline sonified 96 % of control | dose: 200.0 mg/kg/injection, schedule: Q01DX009 (ip), vehicle: saline sonified 94 % of control

CC1(C)OC2OC(COS(C)(=O)=O)C(O)C2O1 (stereo unspecified)
inactive: [9] 100 % of control | [10] 105 % of control | dose: 50.0 mg/kg/injection, schedule: Q01DX009 (ip), vehicle: Klucel (hydroxypropylcellulose) (HPC) 105 % of control | [11] 92 % of control | [12] 103 % of control | [7] 100 % of control | [8] 91 % of control | [14] 102 % of control

O=C1CCCC/C1=C/c1ccc(Cl)cc1
inactive: [12] 95 % of control | [7] 103 % of control | [13] 98 % of control | [8] 106 % of control | [15] 101 % of control | [14] 105 % of control

CC(=O)OC1CC2CCC3C4CC=C(C(C)=O)C4(C)CCC3C2(C)CC1OC(C)=O (stereo unspecified)
inactive: dose: 75.0 mg/kg/injection, schedule: Q04DX003 (ip), vehicle: other 97 % of control | dose: 150.0 mg/kg/injection, schedule: Q04DX003 (ip), vehicle: other 97 % of control | dose: 300.0 mg/kg/injection, schedule: Q04DX003 (ip), vehicle: other 94 % of control

Cc1cc(OCCOC(=O)Nc2ccc(F)cc2)ccc1Cl
inactive: [12] 106 % of control | [13] 101 % of control | [15] 101 % of control
